According to patent US5705693A, “Cationic lipids” (Gilead Sciences, Inc., priority 1995, dated 1998):
Where two headings read alike, the source gives them in different places.

What was measured:
[1] = tested on: CV-1 cells; experiment: Transfection of CV-1 cells with ODN1 and toxicity (Example 6); conditions: 18 h, 10% FBS; for cells transfected CV-1: 15 μg/mL lipid, 1:1 DOPE, 250 pmole ODN1
Protocol: (§4) Preparation of lipid-nucleic acid complexes and cell transfection. Lipids were prepared for complexing with nucleic acids by drying a cationic lipid-colipid mixture in CHCl3 under argon. The molar ratio of cationic lipid to colipid was adjusted by adding appropriate amounts of each lipid in CHCl3 together prior to drying. Usually 10 mL of water was added to a 100 mL round bottom flask containing a dried film of lipid and colipid. The lipids consisted of a mixture of an invention cationic lipid and the colipid DOPE (dioleylphosphatidylethanolamine). Sterile-filtered water or a low ionic strength aqueous buffer such as physiological saline, TE (10 mM tris, 1 mM EDTA, pH 7-8) or Ringer's solution was then added to the dried lipids to obtain a lipid suspension at 1 mg lipid/mL followed by a 10 minute bath sonication (Ultra Sonik 100, NEY) at room temperature to suspend the lipids in the flask. The suspended lipids (10 mL) were then sonicated 5 times for 15 seconds per sonication at 0°-4° C. with about 30-60 seconds between pulses. Sonication was usually conducted in a 15 mL polypropylene culture tube. A probe sonicator (Sonifier 250, Branson Ultrasonics) was used at maximum power for the ice bath sonication and for each 15 second pulse. The lipid suspension was optionally filtered or centrifuged (2000 rpm, 10 minutes at 0-4° C.) to remove large particulate matter and the resulting lipid suspensions were kept at 4° C. until used.
(§5) Lipid nucleic acid complexes were prepared by mixing (a) 10% v/v (usually 100 μL) oligonucleotide in Optimem™ (Bethesda Research Labs, Inc.) at room temperature (about 19°-24° C.) with (b) 10% v/v lipid suspension in Optimem™ at room temperature and allowing the mixture to stand for about 15 minutes, followed by adding (c) 80% v/v Optimem™ without serum or 80% v/v tissue culture medium (Modified Essential Medium (MEM), Dulbecco's Modified Eagle's Medium (DMEM), etc. containing 0-80% fetal bovine serum (Hyclone, Inc.). The lipid and nucleic acid solutions could also be prepared using DMEM without serum, a low ionic strength (less than about 200 mM total ion concentration) aqueous medium lacking phosphate (TE, etc) or water in place of Optimem™. Typically, 100 μL each of Optimem™ containing oligonucleotide (100-500 pmole) and Optimem™ containing added lipid was mixed with 800 μL of serum free Optimem™ or with 800 μL of tissue culture medium containing 10-80% FBS. Generally, 5 or 10 μL (5 or 10 μg) of lipid was added to 95 or 90 μL of Optimem™ to give a final 1 mL transfection preparation containing 5 or 10 μg of lipid and 250 pmole of oligonucleotide. The lipid-nucleic acid mixture was held at room temperature for about 15 min hours before adding medium to give the final transfection preparation volume (usually 1 mL) and warming to 37° C. and immediately applying onto the cells. The transfection mixture was left on the cells for 2 to 24 hours (at 37° C.), with a 6 hour time period commonly used.
(§6) Cells were typically transfected using 1 mL of transfection mixture per well in a 6-well plate. Cells at about 50-100% confluency were used. […] Typical transfections with the invention lipids used cells at about 60-100% confluency.

[2] = tested on: HL60 cells; experiment: Transfection of HL60 cells with 30/ODN1 (Example 8); assay type: cell-based, human; conditions: for % HL60 transfected: 500 pmole ODN1
Text: (§1) Preparation of lipid-nucleic acid complexes and cell transfection.
(§2) The toxicity noted for HL60 cells may have been at least partly due to the high level of ODN1 that was delivered to the cells.

[3] = tested on: SK-OV-3 cells; experiment: Transfection of SK-OV-3 cells with ODN1 in 40% or 80% FBS (Example 7); assay type: cell-based, human; conditions: for % SK-OV-3 transfected: 18 h, 500 pmole ODN1, 1:1 DOPE
Text: as §1
80% serum approximates the serum protein and ion conditions that exist in vivo in mammalian circulation. 30 is thus suitable for transfecting cells under physiological conditions.

[4] = tested on: L7 cells; experiment: Transfection of L7 cells with ODN1 (Example 11); assay type: cell-based, murine; conditions: for % L7 transfected: 20% FBS, 18 h, 250 pmole ODN1
Text: as §1

[5] = tested on: cells; experiment: Transfection with filtered preparations; assay type: cell-based; conditions: 1:1 DOPE, sonicated
Protocol: The invention cationic lipids 30 or 34 and DOPE colipid (1:1) were prepared by sonication and then filtered using 200, 100 or 50 nm filters to obtain particles less than about 200 nm in diameter, less than about 100 nm and less than about 50 nm. […] The 50 nm filtered preparations were about 40-50% as efficient as the preparations containing larger particles. The size of the particles or miscelles in a given preparation will vary depending on the preparation method. Sonicating cationic lipid-colipid mixtures will provide smaller miscelles and vortexing will provide larger miscelles (Felgner J. Biol. Chem. (1994) 269:2550-2561). Such miscelles are believed to transfer the polyanion into the cytoplasm of a eukaryotic or prokaryotic cell by pinocytosis, endocytosis and/or by direct fusion with the plasma membrane.

[6] = tested on: cells; experiment: Amount of fluorescently labeled oligonucleotide delivered versus commercially available lipids; assay type: cell-based; conditions: observed fluorescence intensity, estimated
Text: The difference in transfection efficiency between lipids described herein and commercially available lipids is usually most pronounced when the transfections are done in the presence of medium containing serum. The amount of polyanion delivered into cells was estimated to be about 2- to 100-fold greater for lipids 30, 34 and 35 based on the observed fluorescence intensity of transfected cells after transfection using a fluorescently labeled oligonucleotide. The cationic lipids described herein also transfect some cell types that are not detectably transfected by commercial lipids, particularly where the transfection is conducted in the presence of serum.

[7] = tested on: HUVEC cells; experiment: Transfection of HUVEC cells with ODN1 (Example 9); assay type: cell-based, human; conditions: for % HUVEC transfected: 10% serum, 5 h, 500 pmole ODN1
Text: as §1

[8] = tested on: CV-1 cells
Protocol: as §4, §5, §6

[9] = tested on: ECl cells; experiment: Transfection of ECl cells with ODN1 (Example 10); assay type: cell-based, human; conditions: for % ECl transfected: DMEM
Text: as §1

[10] = tested on: A10 cells; experiment: Transfection of A10 cells with ODN1 (Example 6); assay type: cell-based, rat; conditions: 18 h, 10% FBS; for cells transfected A10: 15 μg/mL lipid, 1:1 DOPE, 250 pmole ODN1; for toxicity to A10 cells / transfection of A10 in the presence of serum: in words
Text: as §1
Cells at about 50-100% confluency were used.

[11] = tested on: CV-1 cells; experiment: Transfection of CV-1 cells with 30/ODN1 (Example 8); assay type: cell-based, African green monkey; conditions: for % CV-1 transfected: 18 h, 500 pmole ODN1
Text: as §1, §2

[12] = tested on: NHEK cells; experiment: Transfection of NHEK cells with ODN1 (Example 10); assay type: cell-based, human; conditions: for % NHEK transfected: DMEM, 24 h
Text: as §1

[13] = tested on: CV-1 cells; experiment: Transfection of CV-1 cells with ODN1 and toxicity (Example 22); assay type: cell-based, African green monkey; conditions: 2:1 DOPE, 6 h, 10% FBS, 250 pmole ODN1
Protocol: (§3) Lipids 35, 52, 54 and 55 were each prepared using a 2:1 lipid:DOPE molar ratio as follows. Two molar equivalents of each lipid in CHCl3 and one equivalent of DOPE in CHCl3 was dried under reduced pressure by rotovap at room temperature. Deionized water was then added to give 1 mg/mL of total lipid. 10 mL of water containing 10 mg of lipid was vortexed for 5 minutes in a 100 mL round bottom flask. 2 mL aliquots were then used to prepare lipid suspensions for complexing with ODN1. Each preparation was obtained by 6 cycles of freezing on dry ice and thawing in a 37° C. water bath.

[14] = tested on: cdc-2 kinase; experiment: cdc-2 antisense oligonucleotide analog transfection, Western blot (Example 22); assay type: cell-based, African green monkey; conditions: 30 nM cdc-2 antisense oligonucleotide analog, 2.5 and 5.0 μg lipid
Text: The oligonucleotide contained 5-(1-propynyl)cytosine in place of cytosine and 5-(1-propynyl)uracil in place of uracil. A control oligonucleotide analog having a mismatched base sequence was also used to check for any non-specific effect on cdc-2 kinase levels in the transfected cells caused by the oligonucleotide analog. A control containing only lipid was also used as a control. […] Protein levels were examined by Western blot analysis.

[15] = Transfection of CV-1 cells with ODN1 and toxicity (Example 22); assay type: cell-based, African green monkey; conditions: monkey, cv-1 cells; 10.0 μg lipid
Protocol: as §3

[16] = fluorescence observation, in words

CCCCCCCCCCCCCCCCCCN(CCCCCCCCCCCCCCCCCC)C(=O)CNC(=O)[C@@H](N)CCCN.Cl.Cl [Compound 30]
cells transfected CV-1 [1]: 85 | transfection of CV-1 in the presence of serum ([1]; in words): efficiently transfected | % HL60 transfected ([2]; 20 μg/mL, 0% serum, 5 h): 77% | % HL60 transfected ([2]; 20 μg/mL, 10% serum, 5 h): 76% | toxicity HL60 ([2]; 20 μg/mL, 10% serum, 5 h, footnote): significant toxicity noted | transfection of HL60 ([2]; in words): efficiently transfected | % SK-OV-3 transfected ([3]; 40% serum): 76% | % SK-OV-3 transfected ([3]; 80% serum): 72% | transfection of SK-OV-3 in the presence of serum ([3]; in words): efficiently transfected | % L7 transfected ([4]; 2.5 μg/mL lipid): 10% | % L7 transfected ([4]; 5 μg/mL lipid): 30% | % L7 transfected ([4]; 10 μg/mL lipid): 60% | toxicity L7 ([4]; in words): little or no toxicity | transfection of L7 ([4]; in words): efficiently transfected | transfection efficiency of 50 nm filtered preparations relative to larger particles ([5]; 50 nm filter): 40-50% | transfection efficiency of 200 nm or 100 nm filtered preparations ([5]; in words): the most efficient (and equally efficient) | amount of polyanion delivered into cells relative to commercially available lipids [6]: 2- to 100 fold | % HUVEC transfected ([7]; 5 μg/mL lipid): 1% | % HUVEC transfected ([7]; 10 μg/mL lipid): 5% | transfection of HUVEC ([7]; in words): modest efficiency | toxicity to CV-1 cells [8]: little or no toxicity | % ECl transfected ([9]; 2.5 μg/mL lipid, 5 hour transfection): 10% | % ECl transfected ([9]; 5 μg/mL lipid, 5 hour transfection): 25-30% | % ECl transfected ([9]; 5 μg/mL lipid, 6 hour transfection): 30% | % ECl transfected ([9]; 10 μg/mL lipid, 5 hour transfection): 51% | % ECl transfected ([9]; 10 μg/mL lipid, 6 hour transfection): 43% | % ECl transfected ([9]; 15 μg/mL lipid, 5 hour transfection): 70% | % ECl transfected ([9]; 20 μg/mL lipid, 6 hour transfection): 20% | level of ODN1 delivered into ECl cells [9, 16]: high levels | toxicity ECl ([9]; in words): little to moderate toxicity | transfection of ECl ([9]; in words): efficiently transfected | cells transfected A10 [10]: 95 | toxicity to A10 cells [10]: little or no toxicity | transfection of A10 in the presence of serum [10]: efficiently transfected | % CV-1 transfected ([11]; 2.5 μg/mL, 10% serum): 90% | % CV-1 transfected ([11]; 5 μg/mL, 10% serum): > 95% | % CV-1 transfected ([11]; 10 μg/mL, 10% serum): > 95% | % CV-1 transfected ([11]; 15 μg/mL, 10% serum): > 95% | % CV-1 transfected ([11]; 20 μg/mL, 50% serum): 95% | % CV-1 transfected ([11]; 20 μg/mL, 80% serum): 90% | transfection of CV-1 at reduced levels of lipid ([11]; in words): efficiently transfected | % NHEK transfected ([12]; 1 μg/mL lipid, second series): 25% | % NHEK transfected ([12]; 2.5 μg/mL lipid, second series): 50% | % NHEK transfected ([12]; 5 μg/mL lipid, first series): 80-90% | % NHEK transfected ([12]; 5 μg/mL lipid, second series): 60-70% | % NHEK transfected ([12]; 10 μg/mL lipid, first series): 70% | % NHEK transfected ([12]; 10 μg/mL lipid, second series): 60-70% | % NHEK transfected ([12]; 20 μg/mL lipid, first series): 60% | level of ODN1 delivered into NHEK cells [12, 16]: high levels | toxicity NHEK ([12]; in words): little to moderate toxicity | transfection of NHEK ([12]; in words): efficiently transfected

CCCCCCCCCCCCCCCCCCN(CCCCCCCCCCCCCCCCCC)C(=O)CCC(=O)NCCCN1CCN(CCCN)CC1 [Compound 38]
cells transfected CV-1 [1]: 70 | toxicity to CV-1 cells ([1]; in words): little or no toxicity | transfection of CV-1 in the presence of serum ([1]; in words): efficiently transfected | % SK-OV-3 transfected ([3]; 40% serum): < 10% | % SK-OV-3 transfected ([3]; 80% serum): 0% | cells transfected A10 [10]: 85 | toxicity to A10 cells [10]: little or no toxicity | transfection of A10 in the presence of serum [10]: efficiently transfected

CCCCCCCCCCCCNC(=O)CCC(=O)NCCCN1CCN(CCCN)CC1 [Compound 44]
cells transfected CV-1 [1]: < 5 | cells transfected A10 [10]: < 10

CCCCCCCCCCCCCCN(CCCCCCCCCCCCCC)C(=O)CNC(=O)C(N)CCCNC(=N)NC(C)=O.Cl.Cl (centres unmarked) [Compound 52]
% cells transfected ([13]; 1 μg lipid): 30-40% | % cells transfected ([13]; 2.5 μg lipid): 60% | % cells transfected ([13]; 5.0 μg lipid): 60% | % cells transfected ([13]; 10.0 μg lipid): 60%

CCCCCCCCCCCCCCN(CCCCCCCCCCCCCC)C(=O)CNC(=O)C(N)CCCNC(=N)NC(=O)OC(C)C.Cl.Cl (centres unmarked) [Compound 53]
cdc-2 protein levels [14]: efficiently reduced cdc-2 protein levels | % cells transfected ([13]; 1 μg lipid): 30% | % cells transfected ([13]; 2.5 μg lipid): 70% | % cells transfected ([13]; 5.0 μg lipid): 100% | % cells transfected ([13]; 10.0 μg lipid): 60%

CCCCCCCCCCCCCCN(CCCCCCCCCCCCCC)C(=O)CNC(=O)C(N)CCCNC(=N)NC(=O)C(C)(C)C.Cl.Cl (centres unmarked) [Compound 54]
% cells transfected ([13]; 1 μg lipid): 10-20% | % cells transfected ([13]; 2.5 μg lipid): 30-40% | % cells transfected ([13]; 5.0 μg lipid): 70-80% | % cells transfected ([13]; 10.0 μg lipid): 40%

CCCCCCCCCCCCCCN(CCCCCCCCCCCCCC)C(=O)CNC(=O)[C@@H](N)CCCNC(=N)N [Compound 55]
cdc-2 protein levels [14]: efficiently reduced cdc-2 protein levels | % cells transfected ([13]; 1 μg lipid): 40% | % cells transfected ([13]; 2.5 μg lipid): 75% | % cells transfected ([13]; 5.0 μg lipid): 100% | % cells transfected ([13]; 10.0 μg lipid): 40% | cytotoxicity at 6 h [15]: > 40%
